Experimental data from publication PMC11079024, “Identification of a family of species-selective complex I inhibitors as potential anthelmintics” (Nature Communications, 2024).
Where “and” joins values, the source holds several entries; their conditions need not be identical. Equal entries are not always repeated.

How the values were obtained:
[1] = target: C. elegans (N2) complex I (NADH:ubiquinone oxidoreductase) (Caenorhabditis elegans, UniProt P24887+Q93873+Q94360); test: biochemical; assay type: biochemical; details: for % Activity Complex I: 100 µM compound, relative to solvent control, mean (SEM); for Percent in vitro activity, Complex I (single replicate Rep1-Rep4) / Percent in vitro activity, Complex I (Mean): 100 μM of NPD compound, C. elegans mitochondria; for Percent in vitro activity, Complex I (single replicate Rep1-Rep4): individual biological replicates; for Percent in vitro activity, Complex I (Mean): mean of four biological replicates
Method in brief: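 Compounds were tested against freeze-thawed isolated mitochondria (0.2 mg/mL protein). NADH:decylubiquinone activity was monitored via DCIP absorbance at 600 nm, and the initial linear slope was normalised to solvent controls.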

[2] = target: C. elegans complex II (succinate dehydrogenase) (Caenorhabditis elegans, UniProt O62215+P41956+Q09545); test: In vitro complex II activity assay, C. elegans mitochondria; assay type: biochemical; details: for % Activity Complex II: 100 µM compound, relative to solvent control, mean (SEM); for Percent in vitro activity, Complex II (single replicate Rep1-Rep4) / Percent in vitro activity, Complex II (Mean): 100 μM of NPD compound, C. elegans mitochondria; for Percent in vitro activity, Complex II (single replicate Rep1-Rep4): individual biological replicates; for Percent in vitro activity, Complex II (Mean): mean of four biological replicates
Experimental: (§1) Mitochondria were isolated from the following free-living nematode strains: C. elegans—N2, CB3474, ECA882, ECA917, ECA1075, ECA1080; C. briggsae—AF16; P. pacificus—PS312; and P. hermaphrodita—B178. With the exception of the P. hermaphrodita strain B178, adult worms of each strain were grown in bulk through liquid culture to obtain mitochondria in sufficient quantities. Due to poor growth in liquid media, mixed stage populations of P. hermaphrodita were washed off and collected from NGM plates seeded with OP50. The isolation of mitochondria from all free-living nematode strains followed the protocol previously outlined in Burns et al.[24]. In brief, a 1 L saturated culture of E. coli HB101 was concentrated 20-fold in 50 mL complete S-medium. ~500,000 L1 worms synchronized from an embryo preparation performed the day prior were added to the S-media/HB101 suspension and grown to adulthood over the course of 3.5 days at 20 °C with shaking at 165 rpm. Following growth, worms were collected in 10 ×15 mL conical tubes and washed 7 times in M9 buffer. Worm suspensions were then combined into a single 15 mL conical tube and diluted to a final volume of 15 mL with M9 buffer. 1 mL aliquots of worm suspension were then distributed to 15 × 1.5 mL screw-cap microcentrifuge tubes and were pelleted at 500 g for 1 min. Excess M9 was aspirated without disturbing the worm pellet. 600 μL ice-cold isolate buffer A (250 mM sucrose, 10 mM Tris (pH 7.5), 1 mM EDTA, 1 mM PMSF (freshly prepared)) and 300 μL cold glass beads were then added to each tube. Tubes were incubated on ice for 10 min, and the worms were then lysed by bead beating (6 x 30 s, with 1 min cooling intervals). Tubes containing worm lysate were centrifuged at 1,000 g for 10 min at 4 °C and the supernatant was transferred to 15 new microcentrifuge tubes on ice. The tubes were centrifuged a second time at 1,000 g for 10 min at 4 °C and the supernatant was once again transferred to 15 new microcentrifuge tubes on ice. These tubes were then centrifuged at 16,000 g for 10 min at 4 °C. The resulting mitochondrial pellet was washed twice by re-suspension in 300 μL of ice-cold isolate buffer B (250 mM sucrose, 10 mM Tris (pH 7.5), 1 mM EDTA). Following the final wash, isolation buffer was aspirated from each tube and the pellets were flash-frozen in ethanol/dry ice and stored at −80 °C until needed.
(§2) The enzymatic activities of individual ETC complexes (I-IV) were assessed spectrophotometrically in isolated mitochondria using a Varioskan LUX Multimode plate reader (ThermoFisher Scientific). Mitochondrial pellets previously isolated were thawed on ice and resuspended in ice-cold isolation buffer (250 mM sucrose, 10 mM Tris (pH 7.5), 1 mM EDTA). The BCA assay (Walker, 1994) was used to quantify the protein concentration of mitochondria suspensions; solutions were diluted to a concentration of 0.2 mg/mL for use in all assays. For the complex I assay, mitochondria pellets were freeze-thawed on ice three times to increase enzyme accessibility. […] 20 μL mitochondria suspension was then added/mixed with a pipette to initiate the reaction. Immediately following the addition of mitochondria, absorbance was measured (complex I and II: 600 nm; complex III and IV: 550 nm) in 30 s intervals over 15 min. Enzymatic activity was determined in each reaction by plotting absorbance versus time and calculating the slope of the curve during the initial linear phase of the reaction. […] Percent activity of each complex was calculated by dividing the enzyme-specific activity of each well by the enzyme-specific activity of the corresponding solvent controls.
Complex II (succinate dehydrogenase) activity was assessed using the DCIP-coupled method previously described in Burns et al.[24].
For preliminary screens of hit compounds, compounds were screened at 100 μM; data are the average of at least three biological replicates. The complex I and II activity assays were used for additional dose-response experiments.

[3] = tested on: C. elegans complex III (decylubiquinol-cytochrome C reductase); test: In vitro complex III activity assay, C. elegans mitochondria; assay type: biochemical, Caenorhabditis elegans; details: for % Activity Complex III: 100 µM compound, relative to solvent control, mean (SEM); for Percent in vitro activity, Complex III (single replicate Rep1-Rep4) / Percent in vitro activity, Complex III (Mean): 100 μM of NPD compound, C. elegans mitochondria; for Percent in vitro activity, Complex III (single replicate Rep1-Rep4): individual biological replicates; for Percent in vitro activity, Complex III (Mean): mean of four biological replicates
Experimental: as §1, §2
Antimycin A-sensitive complex III (decylubiquinol-cytochrome C […]) activity was determined by measuring the reduction of cytochrome C (CytC) as optimized in Luo et al.[59]. Decylubiquinol for complex III assays was prepared fresh as described in Janssen and Boyle, 2019[60].

[4] = tested on: C. elegans complex IV (cytochrome C oxidase); test: In vitro complex IV activity assay, C. elegans mitochondria; assay type: biochemical, Caenorhabditis elegans; details: for % Activity Complex IV: 100 µM compound, relative to solvent control, mean (SEM); for Percent in vitro activity, Complex IV (single replicate Rep1-Rep4) / Percent in vitro activity, Complex IV (Mean): 100 μM of NPD compound, C. elegans mitochondria; for Percent in vitro activity, Complex IV (single replicate Rep1-Rep4): individual biological replicates; for Percent in vitro activity, Complex IV (Mean): mean of four biological replicates
Experimental: as §1, §2
Complex IV (cytochrome C oxidase) activity was determined by following the oxidation of CytC in the protocol outlined by Janssen and Boyle, 2019[60]. Reduced CytC was prepared fresh by adding 1 μL increments of 1 M dithiothreitol to a 1 mM solution of CytC and vortexing. A colour change from brown to orange/pink signals when CytC has been reduced.

[5] = tested on: C. elegans; test: C. elegans chemical screens of RIKEN NPD libraries at 50 μM (hit identification in KCN survival and development/viability assays); assay type: cell-based, Caenorhabditis elegans; details: screened at 50 μM in triplicate; hit = modified z-score < −3; KCN = KCN survival assay, Dev. & Viability = development/viability assay
[6] = tested on: L1 wild-type C. elegans; details: for LC50: caenorhabditis elegans
[7] = tested on: HEK293 cells; details: for CC50: read-out: HEK293 Cell Viability Assay LC50, 2 days exposure

Sequence of C. elegans (N2) complex I (NADH:ubiquinone oxidoreductase) (Q94360 17-199): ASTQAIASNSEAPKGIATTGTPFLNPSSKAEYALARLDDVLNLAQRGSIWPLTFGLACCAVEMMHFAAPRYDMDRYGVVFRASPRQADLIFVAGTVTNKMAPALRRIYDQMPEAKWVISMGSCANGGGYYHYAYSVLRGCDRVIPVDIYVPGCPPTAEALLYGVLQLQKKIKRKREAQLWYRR
Sequence of C. elegans (N2) complex I (NADH:ubiquinone oxidoreductase) (P24887 whole entry): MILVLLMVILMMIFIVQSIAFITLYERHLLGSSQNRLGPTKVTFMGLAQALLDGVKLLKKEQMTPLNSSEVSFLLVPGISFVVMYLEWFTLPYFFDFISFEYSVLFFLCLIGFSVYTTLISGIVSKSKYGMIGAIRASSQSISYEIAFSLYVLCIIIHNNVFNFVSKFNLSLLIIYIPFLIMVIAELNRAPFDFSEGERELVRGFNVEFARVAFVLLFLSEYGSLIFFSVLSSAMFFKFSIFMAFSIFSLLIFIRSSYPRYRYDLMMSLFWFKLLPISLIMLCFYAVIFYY
Sequence of C. elegans (N2) complex I (NADH:ubiquinone oxidoreductase) (Q93873 31-482): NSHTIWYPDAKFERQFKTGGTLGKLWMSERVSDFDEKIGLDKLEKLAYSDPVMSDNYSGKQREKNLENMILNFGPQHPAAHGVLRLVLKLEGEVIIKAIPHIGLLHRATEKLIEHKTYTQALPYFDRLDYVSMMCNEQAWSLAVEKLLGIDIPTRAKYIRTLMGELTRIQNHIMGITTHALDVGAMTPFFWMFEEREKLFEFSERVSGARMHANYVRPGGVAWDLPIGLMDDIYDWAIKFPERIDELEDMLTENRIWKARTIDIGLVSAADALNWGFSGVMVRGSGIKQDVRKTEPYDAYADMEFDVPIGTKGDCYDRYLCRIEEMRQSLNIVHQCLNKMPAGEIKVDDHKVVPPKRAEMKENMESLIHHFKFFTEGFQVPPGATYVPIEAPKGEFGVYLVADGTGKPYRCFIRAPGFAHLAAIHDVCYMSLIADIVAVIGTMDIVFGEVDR
Sequence of C. elegans complex II (succinate dehydrogenase) (P41956 30-182): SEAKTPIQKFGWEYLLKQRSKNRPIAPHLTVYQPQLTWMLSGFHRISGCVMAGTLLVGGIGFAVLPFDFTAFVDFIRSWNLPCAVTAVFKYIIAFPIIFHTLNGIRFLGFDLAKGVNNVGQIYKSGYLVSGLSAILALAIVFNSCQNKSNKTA
Sequence of C. elegans complex II (succinate dehydrogenase) (Q09545 22-298): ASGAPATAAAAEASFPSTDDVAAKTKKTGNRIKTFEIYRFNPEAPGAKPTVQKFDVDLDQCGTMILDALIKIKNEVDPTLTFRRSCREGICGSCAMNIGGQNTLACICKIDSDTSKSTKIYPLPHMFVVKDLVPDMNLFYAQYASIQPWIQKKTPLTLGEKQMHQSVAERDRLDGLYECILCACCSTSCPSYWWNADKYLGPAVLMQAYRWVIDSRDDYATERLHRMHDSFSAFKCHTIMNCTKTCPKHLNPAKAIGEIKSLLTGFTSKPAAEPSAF
Sequence of C. elegans complex II (succinate dehydrogenase) (Q09508 32-646, further chain): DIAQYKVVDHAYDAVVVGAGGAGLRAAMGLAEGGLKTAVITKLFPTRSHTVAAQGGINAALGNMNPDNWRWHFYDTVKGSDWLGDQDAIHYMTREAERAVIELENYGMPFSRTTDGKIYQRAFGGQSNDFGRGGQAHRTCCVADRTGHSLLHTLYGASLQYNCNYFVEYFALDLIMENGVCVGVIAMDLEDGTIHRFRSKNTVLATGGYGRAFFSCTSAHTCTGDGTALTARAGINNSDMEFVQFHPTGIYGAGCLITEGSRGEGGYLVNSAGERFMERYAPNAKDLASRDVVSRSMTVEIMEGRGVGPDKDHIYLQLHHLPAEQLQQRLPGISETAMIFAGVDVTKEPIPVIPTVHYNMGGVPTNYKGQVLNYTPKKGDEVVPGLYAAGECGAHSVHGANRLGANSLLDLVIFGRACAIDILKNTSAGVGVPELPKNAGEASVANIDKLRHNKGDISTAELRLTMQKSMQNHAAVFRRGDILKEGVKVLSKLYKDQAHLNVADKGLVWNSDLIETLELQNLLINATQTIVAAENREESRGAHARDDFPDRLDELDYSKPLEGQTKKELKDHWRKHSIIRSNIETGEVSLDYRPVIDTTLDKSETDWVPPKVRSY
Sequence of C. elegans complex II (succinate dehydrogenase) (O62215 31-145): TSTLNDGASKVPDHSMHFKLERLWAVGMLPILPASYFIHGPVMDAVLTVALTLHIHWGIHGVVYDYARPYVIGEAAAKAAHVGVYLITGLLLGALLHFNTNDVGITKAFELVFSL

SMILES	% Activity Complex I [1]	Percent in vitro activity, Complex I (single replicate Rep1-Rep4) [1]	Percent in vitro activity, Complex I (Mean) [1]	% Activity Complex II [2]	Percent in vitro activity, Complex II (single replicate Rep1-Rep4) [2]	Percent in vitro activity, Complex II (Mean) [2]	% Activity Complex III [3]	Percent in vitro activity, Complex III (single replicate Rep1-Rep4) [3]	Percent in vitro activity, Complex III (Mean) [3]	% Activity Complex IV [4]	Percent in vitro activity, Complex IV (single replicate Rep1-Rep4) [4]	Percent in vitro activity, Complex IV (Mean) [4]	Hit Type [5]	LC50 [6]	CC50 [7]	C. elegans L1 relative motility, 3-hour post 200 µM KCN dilution [6]	HEK293 viability [7]
Cc1cc(O)c(C(=O)/C=C/c2ccccc2)c(=O)o1 [NPD8366]	102.66 (1.57) %	109.574% and 101.002% and 105.233% and 94.820%	102.657%	86.41 (3.37) %	86.839% and 91.030% and 67.920% and 99.847%	86.409%	76.74 (1.10) %	80.994% and 79.847% and 74.350% and 71.759%	76.737%	97.72 (2.77) %	88.563% and 105.997% and 87.809% and 108.514%	97.721%	KCN	11.6 µM	19.7 µM	–	–
O=C(/C=C/c1ccccc1)/C=C/c1ccccc1 [FSL0005]	91.90 (0.78) %	93.303% and 89.704% and 95.600% and 88.991%	91.900%	80.91 (2.02) %	88.395% and 79.227% and 70.277% and 85.744%	80.911%	103.92 (1.25) %	104.719% and 106.444% and 107.817% and 96.693%	103.918%	92.29 (3.01) %	87.534% and 94.293% and 79.459% and 107.854%	92.285%	KCN	0.93 µM	7.48 µM	0.000	–
COc1ccc(-c2cc(=Nc3ccc(C)cc3)c3ccccc3o2)cc1OC [NPD1450]	84.47 (2.03) %	79.543% and 95.426% and 77.236% and 85.664%	84.467%	103.01 (4.34) %	124.470% and 101.843% and 81.995% and 103.742%	103.012%	111.72 (0.94) %	113.847% and 114.804% and 111.813% and 106.416%	111.720%	117.12 (3.30) %	109.749% and 111.295% and 110.581% and 136.859%	117.121%	KCN	35.3 µM	> 50 µM	–	0.921
CCc1ccc(-c2cc(C(=O)Nc3nccs3)c3ccccc3n2)cc1 [STK418118]	–	–	–	–	–	–	–	–	–	–	–	–	Dev. & Viability	–	> 50 µM	–	–
COc1ccc(N=c2cc(-c3ccc(OC)c(OC)c3)oc3ccccc23)c(OC)c1 [NPD6383]	–	–	–	–	–	–	–	–	–	–	–	–	KCN	22.2 µM	–	–	–
O=C(CCCN1C(=O)c2cccc3cccc(c23)C1=O)N1CCN(Cc2ccc3c(c2)OCO3)CC1 [HTD0465]	–	–	–	–	–	–	–	–	–	–	–	–	Dev. & Viability	–	20.5 µM	–	–
Cc1ccc(N=c2cc(-c3ccc4c(c3)OCO4)oc3ccccc23)cc1C [NPD601]	–	–	–	–	–	–	–	–	–	–	–	–	KCN	13.6 µM	–	–	–
